In patent publication US9040261B2, “Compounds as L-cystine crystallization inhibitors and uses thereof” (NEW YORK UNIVERSITY, priority 2009, dated 2015):
Counter-ions that a name gives are not always drawn.

Experiment: Bulk crystallization of L-cystine in the presence of additives (mass yield)
Details: for influence on L-cystine growth: polymers and proteins with proximal carboxylate and amine groups, Table 1
Experimental: Alternately, the hexagonal crystals can be obtained by crystallization performed near neutral pH (Sa) The hexagonal form was crystallized from a supersaturated L-cystine solution prepared by adding 70 mg of L-cystine to 100 mL of deionized water (3 mM), and heating under reflux at 100° C. for 20 min with stirring to completely dissolve L-cystine. […] This concentration was used for bulk crystallization studies in the presence of additives so that a measurable amount of bulk crystals could be obtained in a reasonable time. The solution was then allowed to cool slowly with stirring for 75 min. 30 mL aliquots were transferred to separate glass containers, which were then sealed to prevent evaporation and exposure to airborne particulates and stored for 72 hours at room temperature without stirring. […] The crystals retrieved in this manner were used for AFM studies by mounting individual crystals according to the procedure described below.
Various proteins, poly-amino acids, and molecular mimics of L-cystine were examined as additives. The aforementioned procedure for hexagonal platelet crystallization was repeated. Following the 75 min cooling period, prior to any observable crystallization, the additive was added to the supersaturated L-cystine solution to the desired concentration. […] Crystallization without additive was performed in an identical manner for comparison using a control solution from the same batch. The mass yields of L-cystine crystals were obtained by dividing the mass of L-cystine crystals (collected from growth solution by filtration) by the mass of L-cystine added in the growth solution.
Additives chosen for these studies were various proteins, poly-amino acids, and molecular mimics of L-cystine (see Table 1). The above procedure for hexagonal platelet crystallization was repeated until completion of the 75 min cooling period, at which point 29.5 g of solution was transferred to a 100 mL beaker containing 0.5 g of separately prepared additive solution to yield net concentrations of 2 mg/L additive and 0.7 g/L L-cystine. Additive solutions were replaced with deionized water of equivalent volume for control measurements. […]
L-cystine bulk crystallization was investigated in the presence of various polymers, urinary constituents, fish antifreeze proteins (AFPs), and L-cystine derivatives (i.e. structural mimics of L-cystine), which were analyzed as possible growth inhibitors of hexagonal L-cystine. The potency of each additive was assessed by comparing the difference in crystal yield (Table 1), which is equal to the mass of crystals formed in the presence of 2 mg/L additive (isolated with […]) divided by the total mass of L-cystine (700 mg/L).

[1] = 2 mg/L additive, 0.7 g/L L-cystine (pH 6.8), no additive 80, approximate error ±8%

Compound | Yield (%) = (collected mass by filtration, >11 μm)/(total mass added) × 100% [1] [%] | Yield (%) = (collected mass by filtration, >11 μm)/(total mass added) × 100% (pH 6.8) [%] | influence on L-cystine growth
O=C(O)CCSSCCC(=O)O [3,3′-Dithiodiproprionic acid, 3,3′-dithiodipropionic acid, reference compound] | 72 | – | –
O=C(O)CC(O)(CC(=O)O)C(=O)O [Citrate, sodium citrate (dihydrate), reference compound] | – | 74 | –
CC(C)(SSC(C)(C)[C@@H](N)C(=O)O)[C@H](N)C(=O)O [D-penicillamine disulfide, reference compound] | 65 | – | –
CC(C)(C)SSC[C@H](N)C(=O)O [S-tert-butylmercapto-L-cystine, 5-tert-butylmercapto-L-cysteine, reference compound] | 45 | – | –
Chondroitin sulfate | 64 | – | –
Desialylated Tamm-Horsfall protein: native THP desialylated by treatment with neuraminidase (50% reduction of carbohydrate content) | 41 | – | –
Osteopontin (bovine): Osteopontin, extracted and purified from bovine milk, contains 7 wt % Ca2+ ions | 52 | – | negligible influence
Poly-L-arginine [reference compound] | 34 | – | –
Poly-L-aspartate [reference compound] | 44 | – | –
Poly-L-glutamate [reference compound] | 56 | – | negligible influence
Poly-L-lysine [reference compound] | 64 | – | negligible influence
Tamm-Horsfall protein: Tamm-Horsfall protein obtained from a human sample with no history of kidney stone disease | 69 | – | negligible influence
Transferrin: apo-transferrin (human, >98%) | 56 | – | –
